These results are taken from patent publication US20190374572A1, “KAOLINIC CLAYS WITH ANTIMICROBIAL ACTIVITY” (IMERYS USA, INC., priority 2017, published 2019).

Marks after values point to notes of the source that are not given here.

In test [1] the test system is E. coli. Kind of test: UV-visible bacterial assay (optical density at 570 nm). The format is cell-based.
Test [2] concerns E. coli. Kind of test: CFU-based bacterial assay. The test is classed as cell-based. Here is the method:
Each sample set was evaluated using at least one of the following assays: (1) a CFU-based bacterial assay; […] As explained above, following sample incubation the samples were evaluated for the level of bacterial growth using a CFU-based bacterial assay and/or a UV-visible bacterial assay. The CFU-based bacterial assay involves serially diluting samples by various dilution factors, plating the surface of pre-poured LB plates, and manually counting the resulting sample cultures to measure the level of growth based on log10 CFU/ml. CFU per ml were calculated by counting the number of colonies on the plate with growths ranging from 30 and 300, and then applying the equation (1): In this CFU-based bacterial assay, the levels of activity corresponding to the control samples (no E. coli) were set as the zero points.

In the case of `O.O.O.O.O.O=S(=O)([O-])[O-].[Cu+2]` [Example 24, copper (II) sulfate pentahydrate], in the test on E. coli [1], the “Antibacterial potential category from OD at 570 nm” value (“Antibacterial potential category” for short) was 0.055 ^p) (key: Complete Kill Candidate (<0.250); p: Inhibition-Kill Candidate (0.250-0.350); q: Inhibition Candidate (0.351-0.450); <10^8 Growth Candidate (0.451-1.250); Robust Growth Candidate (>1.251)) and the “UV-Vis Abs @ 570 nm (Optical Density (OD))” value was 0.055 ^p). Also, the “24 Hour log10 CFU/ml” value in the test with E. coli [2] turned out to be 0 log10 CFU/ml.
For `O.O.O.O.O.O.O.O=S(=O)([O-])[O-].[Fe+2]` [Example 21, iron (II) sulfate heptahydrate], the “Antibacterial potential category” value with E. coli [1] is on record as 0.291 ^q) (key: Complete Kill Candidate (<0.250); p: Inhibition-Kill Candidate (0.250-0.350); q: Inhibition Candidate (0.351-0.450); <10^8 Growth Candidate (0.451-1.250); Robust Growth Candidate (>1.251)). The “24 Hour log10 CFU/ml” value in the test on E. coli [2] is recorded as 0 log10 CFU/ml.
Regarding `O.O.O.O.O.O=S(=O)([O-])[O-].[Cu+2]` [Example 22, copper (II) sulfate pentahydrate], in the test with E. coli [1], the “Antibacterial potential category” value is recorded as 0.734 ^r) (key: Complete Kill Candidate (<0.250); p: Inhibition-Kill Candidate (0.250-0.350); q: Inhibition Candidate (0.351-0.450); <10^8 Growth Candidate (0.451-1.250); Robust Growth Candidate (>1.251)) and the “UV-Vis Abs @ 570 nm (Optical Density (OD))” value is 0.734 ^r). Also, in the test with E. coli [2], the “24 Hour log10 CFU/ml” value is reported as 7.8 log10 CFU/ml.
On to `O.O.O.O.O.O.O.O=S(=O)([O-])[O-].[Fe+2]` [Example 20, iron (II) sulfate heptahydrate], for which the “Antibacterial potential category” value with E. coli [1] is listed as 1.172 ^s) (key: Complete Kill Candidate (<0.250); p: Inhibition-Kill Candidate (0.250-0.350); q: Inhibition Candidate (0.351-0.450); <10^8 Growth Candidate (0.451-1.250); Robust Growth Candidate (>1.251)). The “24 Hour log10 CFU/ml” value in the test with E. coli [2] worked out at 8.8 log10 CFU/ml.
As to `O.O.O.O.O.O=S(=O)([O-])[O-].[Cu+2]` [Example 23, copper (II) sulfate pentahydrate], in the test with E. coli [2], the “24 Hour log10 CFU/ml” value came to 2.4 log10 CFU/ml.
